Assay results reported in patent US20240115586A1, “THERAPEUTIC AGENT FOR PULMONARY FIBROSIS” (SANSHO CO. LTD., priority 2020, published 2024).

Test system: bleomycin-induced pulmonary fibrosis model mice
Test: Effect on right lung wet weight, dry weight and hydroxyproline in bleomycin-induced pulmonary fibrosis model mice
Assay type: in vivo, Mouse Crl:CD1(ICR)
Conditions: Day 28, mean ± S.E.M., N=9; for Dry weight of right lung: Control 0.0348 ± 0.0017, Normal 0.0236 ± 0.0007; for Wet weight of right lung: Control 0.1735 ± 0.0087, Normal 0.1224 ± 0.0029; for Hydroxyproline (right lung): Control 354.9 ± 15.1, Normal 266.9 ± 6.4
Description: • Japanese Pharmacopoeia: Physiological saline solution (saline solution) • (2) Test system • Mouse Crl:CD1(ICR), 45 mice, male, purchased from Charles River Japan K.K. (11 weeks old at time of purchase)
The test substance was divided into 6 mg×28 doses prior to the day of administration. Dose solution was prepared on the day of administration. To one bottle of the previously aliquoted test substance (6 mg), 6 mL of saline solution was added and mixed by inverting. The samples were heated (approximately 40° C.) and sonicated until dissolution was visually confirmed (1 mg/mL solution). The 1 mg/mL solution was divided into 0.5 mL portions, and 4.5 mL of saline solution was added. Dissolution was confirmed by inverting and mixing (0.1 mg/mL solution).
The route of administration was intraperitoneal administration.
It was administered once per day for 28 days. Administration at the time of preparation of the pulmonary fibrosis model (Day 0 to Day 4) was before administration of bleomycin.
10 mL/kg was administered intraperitoneally using a 1 mL syringe and needle (Terumo Corporation).
The bleomycin solution was administered into the tail vein of mice at a dose volume of 5 mL/kg (bleomycin dose: 15 mg/kg) once a day for 5 days. The volume of administered liquid was calculated based on the latest body weight and calculated to the nearest 0.01 mL (rounded to the third decimal place). The normal group was administered physiological saline at a volume of 5 mL/kg.
After lethal exsanguination, the right bronchial bifurcation was ligated, and only the right lung was removed. The wet weight of the excised right lung was measured. After weighing, the right lung was minced. After that, the right lung was dried in a dry heat sterilizer set at 72° C. for about 72 hours, and the dry weight of the right lung was measured. After measuring the dry weight, it was stored in an ultra-low temperature freezer (permissible range: −90 to −65° C.) until the amount of hydroxyproline was measured. The left lung was ligated and fixed after a cannula was inserted into the trachea, and a 10% phosphate-buffered formalin solution was injected through the cannula at a pressure of 15 cm H2O to expand and fix the lung tissue. Lung sampling was performed on animals from which blood collection was performed. A fixed left lung is undergoing histopathological examination.
The hydroxyproline content of the right lung cryopreserved in section (6-5) was measured. 2 mL of HCl for hydrolysis was added to the dried right lung and the sample was hydrolyzed in an autoclave at about 121° C. for 30 minutes. After that, it was neutralized with 2.5 N NaOH (pH about 6 to 7: pH test paper was used for confirmation). By measuring the tare weight in advance and measuring the weight after neutralization, the amount (g) of the sample after neutralization was calculated. The sample after neutralization was appropriately diluted with water for injection, and 2 mL of the solution was used as a sample for measurement of HYP content.
1 mL of chloramine T reagent was added to 2 mL of the HYP standard solution and the mixture was left stand at room temperature for 20 minutes. Then, 1 mL of perchloric acid reagent was added and the mixture was left stand at room temperature for 5 minutes. After adding 1 mL of p-dimethylaminobenzaldehyde reagent and heating at 60° C. for 20 minutes, the absorbance at 557 nm of the supernatant which was obtained by filtration using a filter was measured with a spectrophotometer to create a calibration curve.
For 2 mL of each sample for measurement of HYP content, the absorbance was measured in the same manner as described in Section 3.6.6.2, and the HYP content (μg/mL) was calculated from the measured values based on the calibration curve obtained in Section 3.6.6.2. Each sample for measurement of HYP content was diluted 20-fold and was measured. Single measurement was used. […]

[1] = 2ccPA 1 mg/kg intraperitoneal once per day for 28 days
[2] = 2ccPA 10 mg/kg intraperitoneal once per day for 28 days

2-Carbacyclic phosphatidic acid [2ccPA]
Dry weight of right lung [1]: 0.0327 ± 0.0021 g | Wet weight of right lung [1]: 0.1599 ± 0.0113 g | Hydroxyproline (right lung) [1]: 331.2 ± 20.0 μg/lung | Dry weight of right lung [2]: 0.0303 ± 0.0011 g | Wet weight of right lung [2]: 0.1458 ± 0.0044 g | Hydroxyproline (right lung) [2]: 288.8 ± 11.1 μg/lung
